Results on one compound are retold here after US8518677B2, “Microbial bioreaction process” (Evolva Sa, priority 2007, dated 2013).

The conditions of data set [1]: partition coefficient between water and octanol; cited from earlier work.
For data set [2], the system named is S. cerevisiae strain FS09229. In words: Growth of non-evolved strain FS09229 in the presence of extraction solvent (CO2 production). The class given is cell-based. To be noted: 100 ml solvent from start, 800 rpm. On the procedure: The non-evolved FS09229 strain described in previous examples was grown in the presence of nonyl-acetate. A 1 ml aliquot of a glycerol stock that was made from an exponentional growing FS09229 strain was used to inoculate a fermentor, containing a similar medium as described in the previous example, but now containing 100 g/l glucose and 100 ml of nonyl-acetate from the beginning of the fermentation. The stirrer speed was instantly set at 800 rpm. Upon inoculation of the fermentor, a long lag-phase of approximately 70 hrs set-in, during which an apparent adaptation to the solvent took place. Consumption of glucose only then commenced, indicated by a slow increase in CO2 signal, a decrease in dissolved oxygen and addition of base. Indeed the cells continued to grow exponentially with concomitant production of CO2, and consumed the glucose within less than 25 hours. […] The final biomass concentration was 15.5 g/l. The cultivation will be referred to as FS09229-solvent. As a control-experiment said strain was grown in the similar medium without the addition of nonyl-acetate. Upon inoculation of the fermentor, consumption of glucose commenced already after approximately 10 hours, indicated by an increase in CO2 signal, a decrease in dissolved oxygen and addition of base. […]

The subject of data set [3] is S. cerevisiae strain PALCPR. In words: Growth of evolved PALCPR strains in the presence of extraction solvent (CO2 production). The class given is cell-based. The conditions noted are these: PALCPR-evolved-III from glycerol stock; 100 ml solvent from start, 800 rpm. On the procedure: The cells of the PALCPR-solvent culture described in the previous example were taken as starting point because the presence of the solvent mixture would possibly have already evoked adaptation of cells to solvents. For that, cells of the culture described in the previous example were harvested during mid-exponential-phase and stored at −80° C. in 15% glycerol and subsequently a fermentor, containing the same medium as described in the previous example with 10 g/l glucose and 100 g/l galactose, was then inoculated with cells of said PALCPR-solvent culture. The cells were allowed to fully consume the glucose at a stirring speed of 1000 rpm with an average dissolved oxygen content of above 70% of saturated air. At the onset of galactose consumption, the stirring rate was turned down to 300 rpm, after which slowly 100 ml of octylacetate was added.
Galactose consumption indeed commenced again. A small arrest in CO2 production again occurred after 20 hours which, however, recovered after 5 hours, after which the cells grew exponentially with concomitant production of CO2, consumption of galactose within less than 40 hours. Based upon the CO2 production the specific growth rate was estimated to be 0.062 1/h (FIG. 2). The final biomass concentration was 21.6 g/l.
In order to further improve said strain in terms of length of lag-phase and growth rate, a 25 ml aliquot of the exponentional growing PALCPR-evolved-I strain was used to inoculate a fermentor, containing a similar medium as described in the previous example. However, the medium now only contained 100 g/l galactose and did contain 100 ml of octylacetate from the beginning of the fermentation. In addition, the stirrer speed was instantly set at 800 rpm. Upon inoculation of the fermentor, consumption of galactose only commenced after approximately 40 hours, indicated by a slow increase in CO2 signal, a decrease in dissolved oxygen and addition of base. Indeed the cells continued to grow exponentially with concomitant production of CO2, and consumed the galactose within less than 90 hours. Based upon the CO2 production the specific growth rate was estimated to be 0.041 1/h (FIG. 3). The final biomass concentration was 21.5 g/l. The strain is referred to as PALCPR-evolved-II.
Therefore, to further improve said strain in terms of both length of lag-phase and growth rate, a 50 ml aliquot of the exponentional growing PALCPR-evolved-II strain was used to inoculate a fermentor, containing a similar medium as described in the previous example (thus containing 100 g/l galactose 100 ml of octylacetate from the beginning of the fermentation). The stirrer speed was instantly set at 800 rpm. Upon inoculation of the fermentor, consumption of galactose already commenced after less then 20 hours, indicated by a slow increase in CO2 signal, a decrease in dissolved oxygen and addition of base. Indeed the cells further grew exponentially with concomitant production of CO2, and now consumed the galactose within approximately 50 hours. Based upon the CO2 production the specific growth rate was estimated to be 0.091 1/h (FIG. 4). The final biomass concentration was 18.9 g/l. The strain is referred to as PALCPR-evolved-III.
The evolved PALCPR-evolved-III strain described in the previous example was grown in the presence of nonyl-acetate, a similar solvent as octylacetate with one additional carbon atom. A 1 ml aliquot of a glycerol stock that was made from an exponentional growing PALCPR-evolved-III strain was used to inoculate a fermentor, containing a similar medium as described in the previous example, containing only 100 g/l galactose and 100 ml of nonyl-acetate from the beginning of the fermentation. The stirrer speed was instantly set at 800 rpm. Upon inoculation of the fermentor, consumption of galactose only commenced after approximately 70 hours, indicated by a slow increase in CO2 signal, a decrease in dissolved oxygen and addition of base. […]

As usually defined, the logP is the decadic logarithm of the partition coefficient of the neutral form, usually between octanol and water. With `CCCCCCCCCOC(C)=O` [nonyl-acetate], in data set [1], the logP was 4.2. For the same compound, the lag-phase result in data set [2] is recorded as “approximately 70 hrs”. The specific growth rate in data set [2] (100 g/l glucose) is 0.176 h⁻¹; in data set [3], 0.098 h⁻¹. Also, the “lag-phase until galactose consumption commenced” value in data set [3] is “approximately 70 hours”.
